Tests used:
Type in all cases: cell-based
[1] = system: SC-β cells (Nkx6.1/Isl1 double positive cells); test: Percent SC-β cells (Nkx6.1/Isl1 double positive) by FACS; conditions: for SC-β cell percent in stage 6: added to the culture medium during days 1-10 of stage 6, JJKK 048 1 μM, KML 29 10 μM, NF 1819 10 μM
Protocol: (§1) In this instance cryopreserved stage 5 individual cells were thawed and cultured in a modified stage 5 (S5) medium during the first 4 days of Stage 6 (S6d1-d4) […], with subsequent culture of the cells in Stage 6 (S6) medium (see experimental outline in FIG. 2).
(§2) The effect of supplementing the modified S5 medium used in stage 6 with one or more saturated fatty acid of unsaturated fatty acid was analyzed. The fatty acids analyzed included palmitate (saturated fatty acid), oleic acid (unsaturated fatty acid), linoleic acid (unsaturated fatty acid), and palmitoleic acid (unsaturated fatty acid) (see protocol is outlined in FIG. 20). The fatty acid free HSA+fatty acid were stirred for 1 hour at 37° C.
MGLL (monoacylglycerol lipase) is a serine hydrolase that catalyzes the conversion of monoacylglycerides to free fatty acids and glycerol. The effect of three highly specific MGLL inhibitors (JJKK 048 (1 μM), KML 29 (10 μM), NF 1819 (10 μM)) on SC-β cell production was analyzed.
Stage 5 insulin-positive endocrine cell clusters were differentiated from stem cells as described herein. The insulin-positive endocrine cell clusters were dissociated such that the majority of the dissociated cells were now individual cells, and the cells were then cryopreserved, and thawed. The thawed individual cells were then differentiated into β cell clusters through a stage 6 differentiation. […] The base medium of MDCB 131 with 0.05% HSA was used for days 5-11 of stage 6 (FIG. 30, FIG. 31).

[2] = system: thawed cryopreserved stage 5 cells; test: Cell recovery / viable cell number in stage 6 culture after thaw of cryopreserved stage 5 cells; conditions: inclusion in DS3 media
Protocol: The insulin-positive endocrine progenitor cell clusters were dissociated such that the majority of the dissociated cells were individual cells, and the cells were cryopreserved, and thawed. The thawed cells are then differentiated into β cell clusters through a stage 6 differentiation. The stage 6 culture medium comprises DMEM F12 base with 1% human serum albumin (HSA), and optionally 1.5 μM zinc (“DS2 medium”). […] Thus, whether alteration of the S6 medium could improve recovery was analyzed.
In this instance cryopreserved stage 5 individual cells were thawed and cultured in a modified stage 5 (S5) medium during the first 4 days of Stage 6 (S6d1-d4) (approximately 72 hours), with subsequent culture of the cells in Stage 6 (S6) medium (see experimental outline in FIG. 2).
Several factor drop out experiments were conducted to identify the contribution of each factor.

[3] = system: SC-islet cell clusters; test: Cell cluster size, morphology, homogeneity, re-aggregation and stability (microscopy); conditions: day 6 of stage 6 (S6d6), fatty acid supplementation
Protocol: as §2
A select number of metabolites were included in the DS6 medium, including: glutamate, acetate, β hydroxybutarate, L-caratine, taurine, formate, and biotin.

[4] = system: SC-β cells; test: Number / recovery / yield of SC-β cells in stage 6; conditions: day 10 of stage 6; with 0.5% HSA
Protocol: as §1, §2

[5] = system: SC-β cells / SC-islets; test: Glucose stimulated insulin secretion (GSIS), human C-peptide per 1000 cells; conditions: day 10 of stage 6 (S6d10); addition post day 4 of stage 6
Protocol: FIG. 18A is a bar graph showing the glucose stimulated insulin secretion (GSIS) of cells at day 12 of stage 6 (S6d12). GSIS was measured as the level of human C-peptide (pM) per 1000 cells after glucose stimulation. The cells were cultured in stage 6 (S6) medium+1% HSA for days 1-12 of stage 6.
A range of 2.8 mM and 20 mM glucose was used to stimulate GSIS (See experimental protocol FIG. 13).

Row | SMILES | SC-β cell percent in stage 6 [1] | size of the cell clusters [3] | further results
1 | O=C(OC(C(F)(F)F)C(F)(F)F)N1CCC(C(O)(c2ccc3c(c2)OCO3)c2ccc3c(c2)OCO3)CC1 [KML 29] | around 50% |  | 
2 | O=C(N1CCC(C(c2ccc3c(c2)OCO3)c2ccc3c(c2)OCO3)CC1)n1cncn1 [JJKK 048] | around 50% |  | 
3 | O=S(=O)([O-])[O-].[Zn+2] [ZnSO4] |  |  | S6d4 viable cell number [2]: greatly improves S6d4 viable cell number
4 | CCCCC/C=C\C/C=C\CCCCCCCC(=O)O [linoleic acid] |  | enhances the size of the cell clusters | 
5 | O=C1[C@H](c2ccc(F)cc2)[C@@H](c2ccc3c(c2)OCO3)N1C1CCN(C(=O)n2cncn2)CC1 [NF 1819] | around 50% |  | 
6 | CCCCCCCCCCCCCCCC(=O)O [palmitate, palmitic acid] |  | enhances the size of the cell clusters | percent of SC-β cells (Nkx6.1/Isl1 double positive cells) recovered ([1]; fatty acid added to the modified S5 medium, days 1-4 of stage 6): improved; total number of SC-β cells recovered [4]: enhanced the total number of SC-β cells recovered; GSIS [5]: improves GSIS
